“Also recorded” adds a separate entry of the source. Like-named read-outs stand apart in the source and are kept apart here.
Columns and labels:
[1] = biological target: T1, HCV p7 ion channel protein (Hepatitis C virus genotype 1a, UniProt P27958); assay: Bacterial bioassay: growth of E. coli expressing HCV p7; type: cell-based; set-up: scale not given here; conditions: cumulative averaged scores; result above zero indicates potential anti-viral activity
T1 construct: codons were optimised for expression of the p7 protein in E. coli; expressed in transfected cells; host or cells: E. coli carrying plasmid pPLp7 (pPL451 backbone, temperature-inducible)
Source text: The bacterial bioassay method used in the present example to test the anti-viral activity of the compounds against different viral targets was described in detail in PCT/2004/000866, incorporated in its entirety herein by reference. This assay is used in conjunction with the GBV-B and BVDV assays described below, to ensure that all active compounds are identified, some of which are active in one or the other of the assays, while some compounds may be active in both assays.
Briefly, the bacterial bio-assay for screening potential anti-HCV compounds is based on the HCV p7 ion channel protein. p7 is a small membrane protein encoded by HCV, which has a functional activity supporting viral growth and/or replication.
The p7-encoding synthetic cDNA fragment cDp7.coli, in which codons were optimised for expression of the p7 protein in E. coli, was cloned into the expression plasmid pPL451, creating the vector pPLp7, in which p7 expression is temperature inducible, as described in detail in PCT/2004/000866. Inhibition of the growth of E. coli cells expressing p7 at 37° C. was observed as an indicator of p7 ion channel function dissipating the normal Na+gradient maintained by the bacterial cells. Halos of growth around a particular compound application site indicate that the compound has inhibited expression of the p7 ion channel activity that prevents growth in the absence of the compound.
The positive controls were used in this assay to ensure that the assay was working rather than for comparison of relative activities of the compounds.

GBV-B = GBV-B replication in primary marmoset hepatocytes (viral RNA by real-time RT-PCR); type: cell-based
Source text: GBV-B is the most closely related flavivirus to HCV, sharing 27-33% nucleotide sequence identity and 28% amino acid similarity over the complete polypeptide sequence. This virus represents an excellent surrogate system for HCV because it infects small New World primates and replicates efficiently in vitro in primary marmoset hepatocyte (PMH) cultures. The GBV-B homologue of HCV p7 is called p13. It is shown herein that a synthetic peptide corresponding to the two C-terminal transmembrane helices of p13 (which share the greatest homology to p7) forms a cation selective ion channel that, like the p7 channel, is blocked by amantadine (Premkumar et al., 2006). […] These observations confirm that the two homologous channels share similar, but not identical, structural features.
Selected BIT compounds—identified by bacterial assay screening for inhibitors of HCV p7—were tested for ability to inhibit GBV-B replication in primary marmoset hepatocytes (see FIG. 1). The hepatocytes were inoculated 3-days after plating with 10× TCID50 of GBV-B positive marmoset serum. […] was adsorbed for two hours, and then the cells were washed three times and cultured for two days in fresh serum-free medium (SFM) supplemented with hormones and growth factors. Virus released to the culture supernatant was measured as viral RNA copy number, as determined by real-time RT-PCR. […]

[2] = tested on: bovine viral diarrhea virus (BVDV) strain NADL; assay: BVDV CPE-inhibition assay in MDBK cells; type: cell-based; conditions: for EC50: read-out: EC50
Procedure: The antiviral evaluation of selected BIT compounds against BVDV was outsourced to Southern Research Institute (SRI), Fredrick Md. USA. A simple cytoprotection format is used in which the antiviral efficacy of the compounds is assessed by their ability to reduce the cytopathic effect of BVDV infection in Madin-Darby bovine kidney cells (Buckwold et al., 2003)
(§1) A virus-induced cytopathogenic effects (CPE)-inhibition assay procedure was employed to evaluate compounds for antiviral activity against bovine viral diarrhea virus (BVDV) strain NADL, in Madin-Darby bovine kidney (MDBK) cells passaged in T-75 flasks (1, 2). Antiviral assays were designed to test six half-log concentrations of each compound in triplicate against the challenge virus. Cell controls (CC) containing medium alone, virus-infected cell controls (VC) containing medium and virus, drug cytotoxicity controls containing medium and each drug concentration, reagent controls containing culture medium only (no cells), and drug colorimetric controls containing drug and medium (no cells) are run simultaneously with the test samples. Human interferon-α 2b was used as a positive control compound. On the day preceding the assay, the cells were trypsinized, pelleted, counted and resuspended at 1×10^4/well in tissue culture medium in 96-well flat bottom tissue culture plates in a volume of 100 μl per well. One day following plating of cells, the wells were washed and the medium was replaced with complete medium (2% serum) containing various concentrations of test compound diluted in medium in a half-log series. A pre-titered aliquot of virus was removed from the freezer (−80° C.) just before each experiment. The virus was diluted into tissue culture medium such that the amount of virus added to each well would give complete cell killing at 6-7 days post-infection. The plates were incubated at 37° C. in a humidified atmosphere containing 5% CO2 until maximum CPE is observed in the untreated virus control cultures (˜day 7) Inhibition of CPE by the compound was determined using Cell Titer 96 (Promega). A colorimetric method for determining the number of viable cells was used. A computer program was utilized to calculate the percent of CPE reduction of the virus-infected wells and the percentage cell viability of uninfected drug control wells. […] A therapeutic (selectivity) index (TI50) for each active compound was determined by dividing the TC50 by the IC50.
(§2) Drug cytotoxicity was measured separately in uninfected cells. Eleven BIT compounds were tested in the first experiment in which the compounds were added to the cells just prior to infection and were maintained throughout the entire experiment. Two of them, BIT225 and BIT314 returned sub-micromolar IC50 values (see Table 2 below).

[3] = tested on: Madin-Darby bovine kidney (MDBK) cells; assay: Drug cytotoxicity in uninfected MDBK cells; type: cell-based; conditions: uninfected MDBK cells
Source text: as §1, §2

[4] = tested on: bovine viral diarrhea virus (BVDV) strain NADL; conditions: well known from the literature; cited from earlier work

T1 sequence (P27958 747-809): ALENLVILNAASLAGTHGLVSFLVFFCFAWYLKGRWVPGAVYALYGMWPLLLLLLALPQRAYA

SMILES: Cn1cc(-c2cccc3cc(C(=O)NC(=N)N)ccc23)cn1 [BIT225, 5-(1-methylpyrazol-4-yl)2-naphthoylguanidine]
- Average Bacterial Assay Score HCV p7 [1]: 1.20
- Virus in the culture supernatant (viral RNA copy number) (GBV-B; cells pre-treated with 20 μM): no virus was detected
- Efficacy when compounds were added post-inoculation (GBV-B; post-treatment versus pre-treatment): reduced somewhat
- IC50 ([2]; BVDV in MDBK cells, compound added just prior to infection and maintained, N/A = not achieved, read-out: IC50): 530 nM
- EC50 ([2]; Bovine viral diarrhea virus isolates and strains, MDBK, drug tested individually against BVDV): 314 nM
- EC50 ([2]; Bovine viral diarrhea virus isolates and strains, MDBK, in the presence of 5 IU/ml IFNα, Hill slope constrained): 92 nM
- EC50 ([2]; Bovine viral diarrhea virus isolates and strains, MDBK, in the presence of 5 IU/ml IFNα, variable Hill slope): 149 nM
- EC50 ([2]; Bovine viral diarrhea virus isolates and strains, MDBK, in the presence of 10 IU/ml IFNα, Hill slope constrained): 71 nM
- EC50 ([2]; Bovine viral diarrhea virus isolates and strains, MDBK, in the presence of 10 IU/ml IFNα, variable Hill slope): 125 nM
- inhibition at 0.031 µM ([2]; Bovine viral diarrhea virus isolates and strains, MDBK, 31 nM BIT225 alone): ~5%
- IC50 ([2]; Bovine viral diarrhea virus isolates and strains, MDBK, Table 2a, read-out: BVDV IC50): 1270 nM
- IC50 ([2]; Bovine viral diarrhea virus isolates and strains, MDBK, subsequent repeat assay, read-out: IC50): 330 nM
- IC50 values (in words) ([2]; first experiment, Table 2): sub-micromolar
- TC50 [3]: 11600 nM

SMILES: NC(=O)c1ncn([C@@H]2O[C@H](CO)[C@@H](O)[C@H]2O)n1 [Ribavirin, reference compound]
- antiviral activity ([2]; 1.25 μg/ml Ribavirin alone): no antiviral activity
- Antiviral activity on its own ([2]; alone, range up to 20 μg/ml): only very little antiviral activity was detected; also recorded: no antiviral activity
- activity against BVDV on its own [4]: very little activity

Reference: patent US20100254942A1, “HEPATITIS C ANTIVIRAL COMPOSITIONS AND METHODS” (BIOTRON LIMITED, priority 2007, published 2010)
